{"source": "patent US10370697B2", "about": "“Propeptide-luciferase fusion proteins and methods of use thereof” (THE BROAD INSTITUTE, INC., priority 2011, dated 2019)", "key": {"[1]": {"test_system": "MIN6 cells expressing proinsulin-luciferase construct", "experiment": "High-throughput luciferase secretion screen, proinsulin-luciferase reporter, 384-well", "type": "cell-based, mouse", "conditions": "for Z-score / Z-score With Glucose / Z-score Without Glucose: luciferase secretion, 30 μM, 1 hour; for Z-score: 1600 compound screen, Z-score vs DMSO wells; for Z-score / Z-score With Glucose: 100 mg/dL glucose; for Z-score With Glucose / Z-score Without Glucose: repeated 1600-compound screen; for Z-score Without Glucose: absence of glucose", "procedure": "MIN6 and INS-1E cells were expanded to 80% confluence in their respective growth media, washed once in PBS and incubated for 1 hour at 37° C. in KRB without glucose. Cells were then dissociated, spun at 300 g×2 minutes, resuspended in fresh KRB without glucose and filtered through 40 μm mesh (Becton Dickenson®). Next, the cells were counted and diluted in KRB to 1×10^6 cells per mL, and glucose was added as required for each experiment. Cells were then seeded in 384-well format, 3×10^4 cells in 30 μL per well, using a Multidrop™ Combi device (Thermo Scientific®, Billerica, Mass.). Compounds from the Pharmakon 1600 Collection (Microsource Discovery Systems™, Gaylordsville, Conn.) were pinned into each well using a CyBio® Vario (CyBio®, Jena, Germany) to a final concentration of 30 μM, and the plates were then incubated for 1 hour at 37° C. The plates were then spun at 300 g×2 minutes and the supernatant transferred to a new 384-well plate. Coelenterazine substrate was then added to a final concentration of 20 μM and luciferase activity determined using a standard plate reader (Biotek®).\nFor the high-throughput screens, the Z-score of each test compound was calculated using the formula: […]\nwhere x is the log-transformed, signal decay-adjusted luciferase signal from a compound-treated well, μ is the mean of the log-transformed luciferase signals from the DMSO-treated wells on the same plate, and a is the standard deviation of the log-transformed luciferase signals of the DMSO-treated wells across all plates (to allow for cross-plate comparison of compounds). Prior to calculating the Z-score, a row-based correction factor was applied to all luciferase readings to adjust for the rapid signal decay occurring during the course of each 384-well plate read. The signal decay was modeled as a logarithmic function (Microsoft® Excel) and then used to adjust each well's luciferase reading based on the corresponding row within the plate.\nWe performed a pilot chemical screen at a substimulatory glucose concentration (100 mg/dL) in MIN6 cells using a collection of 1600 known bioactive small molecules, with the sulfonylurea glipizide included as a positive control. […] Several commonly used drugs without known links to beta-cell function caused significant increases in luciferase secretion in our assay (compounds summarized in Table 1).\nAs there is a well-recognized need for glucose-dependent small-molecule agonists of insulin secretion, we subsequently evaluated whether our assay could be adapted to find such secretagogues. We repeated the 1600-compound screen in the presence and absence of a substimulatory glucose concentration (100 mg/dL)."}, "[2]": {"test_system": "Alpha TC1 mouse alpha cell line", "experiment": "Luciferase secretion, proglucagon-luciferase (G2) reporter in alpha cells", "type": "cell-based", "conditions": "glucose 0-300 mg/dL (0-16.7 mM)", "procedure": "The preglucagon G^2 construct was introduced into the Alpha TC1 mouse alpha cell line. Cells were stimulated with IBMX, arginine, or potassium chloride (KCl) and varying amounts of glucose in the range of 0-300 mg/dL (0-16.7 mM). Luciferase activity of the supernatant was determined (FIG. 6)."}, "[3]": {"test_system": "MIN6 mouse beta cell line", "experiment": "Luciferase secretion, preproamylin-Gaussia luciferase (PAG) reporter", "type": "cell-based", "conditions": "1 hour at the indicated glucose concentrations; 25 uM glipizide, 50 uM IBMX, 20 uM forskolin, 40 mM KCl, 20 uM PMA", "procedure": "FIG. 4 is a graph showing the pre-proamylin-luciferase reporter in MIN6 cells responds as predicted to known insulin secretagogues. Cells were treated for 1 hour at the indicated glucose concentrations with either DMSO, 25 uM glipizide, 2.5 uM glucokinase activator (GKA), 50 uM 3-isobutyl-1-methylxanthine (IBMX), 20 uM forskolin, 40 mM potassium chloride (KCl), or 20 uM phorbol myristate acetate (PMA).\nFor standard secretion assays, MIN6 and INS-1E cells were plated in 96-well format at a density of 4×10^4 cells per well in 100 μL of their respective growth media and incubated overnight at 37° C. in 5% CO2 to allow attachment. Cells were washed once with PBS and incubated for 1 hour at 37° C. in sterile, 0.45 μm-filtered Krebs Ringer Buffer (KRB) containing 138 mM NaCl, 5.4 mM KCl, 2.6 mM MgCl2, 2.6 mM CaCl2, 5 mM NaHCO3, 10 mM HEPES and 5 g/L bovine serum albumin (Sigma®). The cells were then washed in KRB once and stimulated for 1 hour in 100 μL of fresh KRB containing varying amounts of glucose and compounds. The insulin concentration was determined using an insulin ELISA (ALPCO®) with the supplied protocol. Luciferase activity was determined from the same samples by adding the coelenterazine substrate (Nanolight®) to the supernatant to a final concentration of 20 μM and reading on a standard plate reader (Biotek™, Winooski, Vt.).\nThe preproamlyin constructs was introduced into the MIN6 mouse beta cell line (FIGS. 3A and 3B)."}, "GLUTag mouse L-cell line": {"test_system": "GLUTag mouse L-cell line", "experiment": "Luciferase secretion, proglucagon-luciferase (G2) reporter in L cells", "type": "cell-based", "procedure": "The proglucagon G^2 construct was also introduced into the GLUTag mouse L-cell line. Cells were stimulated with Forskolin/IBMX, KCl, glipizide, PMA, and L-glutamine. Luciferase activity of the supernatant was determined."}}}
{"smiles": "CN(C)CC[C@@H](c1ccc(Cl)cc1)c1ccccn1", "note": "[(S)-chlorpheniramine]", "values": [{"measurement": "Z-score", "setting": "[1]", "value": 31.8}]}
{"smiles": "COc1c2ccoc2cc2oc(=O)ccc12", "note": "[Bergapten]", "values": [{"measurement": "Z-score With Glucose", "setting": "[1]", "value": 20.9}, {"measurement": "Z-score Without Glucose", "setting": "[1]", "value": 2.9}]}
{"smiles": "CCN(CC)CCNC(C(=O)OCCC(C)C)c1ccccc1", "note": "(stereo not drawn) [Camylofine]", "values": [{"measurement": "Z-score", "setting": "[1]", "value": 23.8}, {"measurement": "Z-score With Glucose", "setting": "[1]", "value": 4.7}, {"measurement": "Z-score Without Glucose", "setting": "[1]", "value": 0.2}]}
{"smiles": "COc1ccccc1OCCNCC(O)COc1cccc2[nH]c3ccccc3c12", "note": "(stereo not drawn) [Carvedilol]", "values": [{"measurement": "Z-score Without Glucose", "setting": "[1]", "value": 1.5}]}
{"smiles": "Clc1ccc(Cn2c(CN3CCCC3)nc3ccccc32)cc1", "note": "[Clemizole]", "values": [{"measurement": "Z-score With Glucose", "setting": "[1]", "value": 12.2}, {"measurement": "Z-score Without Glucose", "setting": "[1]", "value": 0.4}]}
{"smiles": "CC(=O)[C@@]1(O)CC[C@H]2[C@@H]3CCC4=CC(=O)CC[C@]4(C)[C@H]3CC[C@@]21C", "note": "[Hydroxyprogesterone]", "values": [{"measurement": "Z-score Δ", "setting": "[1]; difference of Z-score with and without glucose", "value": 15.6}, {"measurement": "Z-score With Glucose", "setting": "[1]", "value": 18.3}, {"measurement": "Z-score Without Glucose", "setting": "[1]", "value": 2.7}]}
{"smiles": "CC(C)Cn1c(=O)n(C)c(=O)c2[nH]cnc21", "note": "[IBMX, 3-isobutyl-1-methylxanthine]", "values": [{"measurement": "luciferase secretion (luciferase activity of the supernatant)", "setting": "[2]", "value": "no secretion of luciferase"}, {"measurement": "luciferase activity (luminescence)", "setting": "[3]", "value": "increased luminescence in a dose-dependent manner"}]}
{"smiles": "[Cl-].[K+]", "note": "[KCl, potassium chloride]", "values": [{"measurement": "luciferase secretion (luciferase activity of the supernatant)", "setting": "GLUTag mouse L-cell line", "value": "secreted luciferase"}, {"measurement": "luciferase secretion (luciferase activity of the supernatant)", "setting": "[2]", "value": "secreted luciferase"}, {"measurement": "luciferase activity (luminescence)", "setting": "[3]", "value": "increased luminescence in a dose-dependent manner"}]}
{"smiles": "NC(=O)CC[C@H](N)C(=O)O", "note": "[L-glutamine]", "values": [{"measurement": "luciferase secretion (luciferase activity of the supernatant)", "setting": "GLUTag mouse L-cell line", "value": "no secretion of luciferase"}]}
{"smiles": "C[C@@H]1CC(=O)NN=C1c1ccc(NN=C(C#N)C#N)cc1", "note": "[Levosimendan]", "values": [{"measurement": "Z-score", "setting": "[1]", "value": 40.7}]}
{"smiles": "Oc1ccc(OCc2ccccc2)cc1", "note": "[Monobenzone]", "values": [{"measurement": "Z-score", "setting": "[1]", "value": 38.7}, {"measurement": "Z-score With Glucose", "setting": "[1]", "value": 31.8}, {"measurement": "Z-score Without Glucose", "setting": "[1]", "value": 5.6}]}
{"smiles": "CCN(CC)CCOC(=O)C(Cc1cccc2ccccc12)CC1CCCO1", "note": "(stereo not drawn) [Nafronyl]", "values": [{"measurement": "Z-score", "setting": "[1]", "value": 25.4}, {"measurement": "Z-score With Glucose", "setting": "[1]", "value": 17.8}, {"measurement": "Z-score Without Glucose", "setting": "[1]", "value": 3.4}]}
{"smiles": "Cc1ccccc1C(OCCN(C)C)c1ccccc1", "note": "(stereo not drawn) [Orphenadrine]", "values": [{"measurement": "Z-score", "setting": "[1]", "value": 27.4}]}
{"smiles": "CCCCCCCCCCCCCC(=O)O[C@@H]1[C@@H](C)[C@@]2(O)[C@@H](C=C(CO)C[C@]3(O)C(=O)C(C)=C[C@@H]23)[C@@H]2C(C)(C)[C@]12OC(C)=O", "note": "[PMA, phorbol myristate acetate]", "values": [{"measurement": "luciferase secretion (luciferase activity of the supernatant)", "setting": "GLUTag mouse L-cell line", "value": "secreted luciferase"}, {"measurement": "luciferase activity (luminescence)", "setting": "[3]", "value": "increased luminescence in a dose-dependent manner"}]}
{"smiles": "CCCNCC(O)COc1ccccc1C(=O)CCc1ccccc1", "note": "(stereo not drawn) [Propafenone]", "values": [{"measurement": "Z-score With Glucose", "setting": "[1]", "value": 10.5}, {"measurement": "Z-score Without Glucose", "setting": "[1]", "value": 1.5}]}
{"smiles": "O=C(CCCN1CCC2(CC1)C(=O)NCN2c1ccccc1)c1ccc(F)cc1", "note": "[Spiperone]", "values": [{"measurement": "Z-score With Glucose", "setting": "[1]", "value": 9.0}, {"measurement": "Z-score Without Glucose", "setting": "[1]", "value": "−2.8"}]}
{"smiles": "Nc1c2c(nc3ccccc13)CCCC2", "note": "[Tacrine]", "values": [{"measurement": "Z-score", "setting": "[1]", "value": 38.8}]}
{"smiles": "Nc1nc(N)c2nc(-c3ccccc3)c(N)nc2n1", "note": "[Triamterene]", "values": [{"measurement": "Z-score", "setting": "[1]", "value": 76.3}]}
{"smiles": "OC(CCN1CCCCC1)(c1ccccc1)C1CCCCC1", "note": "(stereo not drawn) [Trihexyphenidyl]", "values": [{"measurement": "Z-score", "setting": "[1]", "value": 50.5}]}
{"smiles": "N=C(N)NCCC[C@H](N)C(=O)O", "note": "[arginine]", "values": [{"measurement": "luciferase secretion (luciferase activity of the supernatant)", "setting": "[2]", "value": "secreted luciferase"}]}
{"smiles": "Cc1cnc(C(=O)NCCc2ccc(S(=O)(=O)NC(=O)NC3CCCCC3)cc2)cn1", "note": "[glipizide]", "values": [{"measurement": "luciferase secretion (luciferase activity of the supernatant)", "setting": "GLUTag mouse L-cell line", "value": "no secretion of luciferase"}, {"measurement": "luciferase secretion", "setting": "[1]; screen in presence and absence of 100 mg/dL glucose", "value": "caused luciferase secretion regardless of the ambient glucose level"}, {"measurement": "luciferase activity (luminescence)", "setting": "[3]", "value": "did not increase luciferase activity"}]}
